Reference: article PMC11031590, “Narazaciclib, a novel multi-kinase inhibitor with potent activity against CSF1R, FLT3 and CDK6, shows strong anti-AML activity in defined preclinical models” (Scientific Reports, 2024)
Values belong to the compound of their own block, whether it stands above or below them.

How the values were obtained:
Ba/F3-CSF1R cell line = experiment: Ba/F3-CSF1R proliferation assay (CTG); type: cell-based, mouse; settings: + 100 ng/ml CSF-1
Method: (§1) The recombinant Ba/F3 cell lines overexpressing human CSF1R, or human RBM6-CSF1R, or human ETV6-CSF1R were generated using a retrovirus vector (Kyinno Co., Ltd. Beijing). The recombinant Ba/F3 lines overexpressing human Kras G12C orEGFR-L718Q mutants, and different mutant variants of FLT3 were also similarly created as well. A standard proliferation assay via CTG readout was performed according to the vendor’s instructions (KYinno Biotechnology Co., Ltd. Beijing).

[1] = system: Ba/F3-RBM6-CSF1R cell line; experiment: Ba/F3-RBM6-CSF1R proliferation assay (CTG); type: cell-based, mouse; settings: not requiring CSF1
Method: as §1

AM8096 AML-PDX = experiment: AM8096 systemic AML-PDX model; type: in vivo, NOD/scid mice; settings: AM8096, quizartinib
Method: For systemic AML-PDX models, the model establishment and narazaciclib pharmacology experiment were performed essentially as described previously. Briefly, 2 × 10^6 AM7407 cells, or 2 × 10^6 AM7577 cells, or 2 × 10^6 AM5512 cells, or 1.65 × 10^6 AM8096 cells were inoculated intravenously into 4- to 5-week-old female NOD/scid mice for AML development. Engraftment was confirmed by the presence of circulating human CD45+ cells (anti-human CD45 antibody, Cat. 304038, Biolegend) in peripheral blood. Mice with successful engraftment of AML-PDX were randomized into different treatment groups (N = 6) and received their designated treatments. Narazaciclib was administrated orally or intraperitoneally at 10 mg/kg, or 30 mg/kg, or 100 mg/kg every day throughout the study, while Cytarabine was administrated intraperitoneally at 3 mg/kg every day. Following the initiation of designated treatments, leukemic burden was monitored by flow cytometry with anti-human CD45 antibody on the peripheral blood every week as well as on the peripheral blood, bone marrow cells and splenocytes of mice at sacrifice. Mice were sacrifice once the followings are observed: body weight loss over 20%, reduced motility and activity, labored breathing, ruffled coat, hunched back and severe dehydration.

[2] = system: MV-4-11 subcutaneous xenograft; settings: prior knowledge; cited from earlier work
[3] = system: MV-4-11 subcutaneous xenograft; experiment: MV-4-11 subcutaneous xenograft model; type: in vivo, NOD/scid mice; settings: Azacitidine 3 mg/kg intraperitoneally twice per week for 3 weeks
Source text: The subcutaneous cell line xenograft (CDX) models and systemic patient-derived xenograft (PDX) models of AML have been extensively described before. For the subcutaneous MV-4-11 CDX model, 5 × 10^6 MV-4-11 tumor cells harvested from exponential growth phase were mixed with Matrigel (1:1) and then inoculated into the right front flank region of 6- to 7-week-old female NOD/scid mice for tumor development. MV-4-11 tumor-bearing mice were randomized into 5 groups (N = 8) when their tumor volume reached approximately 100 mm^3 and received their designated treatments following randomization. Narazaciclib was administrated intraperitoneally at 100 mg/kg twice per week for 3 weeks, while Azacitidine was administrated intraperitoneally at 3 mg/kg twice per week for 3 weeks. For the subcutaneous Ba/F3-ETV6-CSF1R CDX model, 1 × 10^6 Ba/F3-ETV6-CSF1R tumor cells harvested from exponential growth phase were mixed with Matrigel (1:1) and then inoculated into the right front flank region of 6- to 8-week-old female NOD/scid mice for tumor development. Ba/F3-ETV6-CSF1R tumor-bearing mice were randomized into 5 groups (N = 6) when their tumor volume reached approximately 100 mm^3 and received their designated treatments following randomization. […] Tumor volume and body weight were measured at different time points and tumor growth inhibition (TGI) was used as index to determine the therapeutic efficacy.

IC50 (Ba/F3-CSF1R cell line; Mus musculus): ~3.88 nM | IC50 ([1]; Mus musculus): 147 nM
Compound: FC(F)(F)c1ccc(CNc2ccc(Cc3c[nH]c4ncc(Cl)cc34)cn2)cn1 [Pexidartinib, pexidartinib, reference compound]

Compound: CC(C)(C)c1cc(NC(=O)Nc2ccc(-c3cn4c(n3)sc3cc(OCCN5CCOCC5)ccc34)cc2)no1 [quizartinib, reference compound]
response of model (AM8096 AML-PDX): responded poorly | response of MV-4-11 to FLT3i [2]: responded

Compound: Nc1ncn([C@@H]2O[C@H](CO)[C@@H](O)[C@H]2O)c(=O)n1 [Azacitidine, reference compound]
anti-AML effect (tumor growth) [3]: little anti-AML effect

Compound: CCc1nc(C(N)=O)c(Nc2ccc(N3CCC(N4CCN(C)CC4)CC3)c(OC)c2)nc1NC1CCOCC1 [gilteritinib]
response of MV-4-11 to FLT3i [2]: responded

IC50 (Ba/F3-CSF1R cell line): 59.5 nM | IC50 [1]: 344 nM
Compound: COc1ccc(COc2ccc(Cc3cnc(N)nc3N)cc2OC)cc1 [GW2580, reference compound]

Compound: CNC(=O)c1cc(Oc2ccc(NC(=O)Nc3ccc(Cl)c(C(F)(F)F)c3)cc2)ccn1 [sorafenib]
response of MV-4-11 to FLT3i [2]: responded
